Data as given in the NIST ThermoML archive (doi:10.1016/j.fluid.2004.09.013).

Settings: for mass density: Fluid (supercritical or subcritical phases), Vibrating tube method; for vapor or sublimation pressure: Liquid

C/C=C/C [(E)-2-butene]
Settings	mass density [kg/m3]
273.24 K, 553 kPa	627.87
273.24 K, 4992 kPa	633.27
273.24 K, 9995 kPa	638.88
273.24 K, 14991 kPa	644.04
273.24 K, 19997 kPa	648.86
273.24 K, 24996 kPa	653.38
273.24 K, 29993 kPa	657.62
273.24 K, 34997 kPa	661.64
273.24 K, 39989 kPa	665.43
278.25 K, 553 kPa	622.2
278.25 K, 4990 kPa	627.88
278.25 K, 10005 kPa	633.76
278.25 K, 15007 kPa	639.16
278.25 K, 20007 kPa	644.16
278.25 K, 24990 kPa	648.82
278.25 K, 30005 kPa	653.23
278.25 K, 34987 kPa	657.36
278.25 K, 40004 kPa	661.3
283.26 K, 551 kPa	616.48
283.26 K, 4990 kPa	622.46
283.26 K, 9993 kPa	628.6
283.26 K, 15009 kPa	634.25
283.26 K, 20003 kPa	639.45
283.26 K, 24994 kPa	644.29
283.26 K, 29985 kPa	648.83
283.26 K, 35008 kPa	653.12
283.26 K, 40005 kPa	657.17
288.27 K, 548 kPa	610.68
288.27 K, 4995 kPa	616.99
288.27 K, 9994 kPa	623.43
288.27 K, 14992 kPa	629.3
288.27 K, 19992 kPa	634.71
288.27 K, 24999 kPa	639.75
288.27 K, 29993 kPa	644.44
288.27 K, 34985 kPa	648.85
288.27 K, 40007 kPa	653.04
293.28 K, 550 kPa	604.8
293.28 K, 4985 kPa	611.45
293.28 K, 9991 kPa	618.21
293.28 K, 14993 kPa	624.34
293.28 K, 19997 kPa	629.98
293.28 K, 24993 kPa	635.19
293.28 K, 29998 kPa	640.06
293.28 K, 35013 kPa	644.64
293.28 K, 39998 kPa	648.92
298.29 K, 551 kPa	598.83
298.29 K, 4989 kPa	605.85
298.29 K, 14986 kPa	619.36
298.29 K, 19984 kPa	625.21
298.29 K, 25012 kPa	630.65
298.29 K, 29999 kPa	635.67
298.29 K, 34986 kPa	640.36
298.29 K, 39987 kPa	644.79
298.3 K, 9994 kPa	612.96
303.3 K, 590 kPa	592.81
303.3 K, 4982 kPa	600.18
303.3 K, 9998 kPa	607.66
303.3 K, 19987 kPa	620.43
303.3 K, 25004 kPa	626.07
303.3 K, 29998 kPa	631.26
303.3 K, 35005 kPa	636.13
303.31 K, 15001 kPa	614.35
303.31 K, 39999 kPa	640.69
308.31 K, 635 kPa	586.69
308.31 K, 4989 kPa	594.43
308.32 K, 10005 kPa	602.29
308.32 K, 14996 kPa	609.28
308.32 K, 19995 kPa	615.63
308.32 K, 24994 kPa	621.44
308.32 K, 29983 kPa	626.82
308.32 K, 35009 kPa	631.86
308.32 K, 39996 kPa	636.54
313.2 K, 869 kPa	580.91
313.21 K, 4996 kPa	588.66
313.21 K, 10004 kPa	596.91
313.21 K, 14989 kPa	604.2
313.21 K, 20008 kPa	610.83
313.21 K, 24999 kPa	616.85
313.21 K, 29996 kPa	622.41
313.21 K, 34992 kPa	627.58
313.21 K, 39986 kPa	632.41
318.21 K, 939 kPa	574.67
318.21 K, 5000 kPa	582.76
318.21 K, 9985 kPa	591.43
318.21 K, 14990 kPa	599.1
318.21 K, 20004 kPa	605.99
318.21 K, 25005 kPa	612.25
318.21 K, 29987 kPa	617.99
318.21 K, 34986 kPa	623.33
318.21 K, 39990 kPa	628.31
323.22 K, 1000 kPa	568.23
323.22 K, 4994 kPa	576.71
323.22 K, 9997 kPa	585.9
323.22 K, 14997 kPa	593.93
323.22 K, 19997 kPa	601.1
323.22 K, 24992 kPa	607.59
323.22 K, 30007 kPa	613.57
323.22 K, 34983 kPa	619.06
323.22 K, 39993 kPa	624.2
328.22 K, 1068 kPa	561.65
328.22 K, 4987 kPa	570.54
328.22 K, 9989 kPa	580.26
328.22 K, 14994 kPa	588.69
328.22 K, 19994 kPa	596.17
328.22 K, 24990 kPa	602.92
328.22 K, 30006 kPa	609.12
328.22 K, 34984 kPa	614.78
328.22 K, 39992 kPa	620.09
333.22 K, 1143 kPa	554.92
333.22 K, 5001 kPa	564.29
333.22 K, 9997 kPa	574.58
333.22 K, 15004 kPa	583.44
333.22 K, 19992 kPa	591.23
333.22 K, 25005 kPa	598.27
333.22 K, 30004 kPa	604.66
333.22 K, 35005 kPa	610.54
333.22 K, 39985 kPa	615.98
338.22 K, 1226 kPa	548.04
338.22 K, 4986 kPa	557.85
338.22 K, 10000 kPa	568.81
338.22 K, 15000 kPa	578.1
338.22 K, 20000 kPa	586.27
338.22 K, 25000 kPa	593.57
338.22 K, 29994 kPa	600.18
338.22 K, 35008 kPa	606.28
338.22 K, 39996 kPa	611.89
343.22 K, 1315 kPa	540.98
343.22 K, 29988 kPa	595.68
343.22 K, 34990 kPa	601.95
343.22 K, 39986 kPa	607.75
343.23 K, 4999 kPa	551.32
343.23 K, 10003 kPa	562.95
343.23 K, 14999 kPa	572.73
343.23 K, 19997 kPa	581.25
343.23 K, 25007 kPa	588.85
348.23 K, 1414 kPa	533.71
348.23 K, 4992 kPa	544.57
348.23 K, 10005 kPa	556.98
348.23 K, 14992 kPa	567.27
348.23 K, 19998 kPa	576.19
348.23 K, 25013 kPa	584.1
348.23 K, 29992 kPa	591.18
348.23 K, 35003 kPa	597.68
348.23 K, 39996 kPa	603.63
353.23 K, 1522 kPa	526.23
353.23 K, 4999 kPa	537.68
353.23 K, 9984 kPa	550.87
353.23 K, 14991 kPa	561.76
353.23 K, 20002 kPa	571.1
353.23 K, 25003 kPa	579.31
353.23 K, 30000 kPa	586.67
353.23 K, 35004 kPa	593.37
353.23 K, 39995 kPa	599.51
358.23 K, 1641 kPa	518.52
358.23 K, 4984 kPa	530.51
358.23 K, 10005 kPa	544.73
358.23 K, 14998 kPa	556.2
358.23 K, 20004 kPa	565.97
358.23 K, 24987 kPa	574.48
358.23 K, 29994 kPa	582.12
358.23 K, 35007 kPa	589.05
358.23 K, 39996 kPa	595.37
363.23 K, 1765 kPa	510.53
363.23 K, 5001 kPa	523.21
363.23 K, 9988 kPa	538.37
363.23 K, 14981 kPa	550.47
363.23 K, 19993 kPa	560.72
363.23 K, 25001 kPa	569.62
363.23 K, 30001 kPa	577.52
363.23 K, 34991 kPa	584.64
363.23 K, 40008 kPa	591.18
368.24 K, 1900 kPa	502.25
368.24 K, 4996 kPa	515.59
368.24 K, 9996 kPa	531.94
368.24 K, 14998 kPa	544.78
368.24 K, 19997 kPa	555.48
368.24 K, 25002 kPa	564.74
368.24 K, 29994 kPa	572.92
368.24 K, 35003 kPa	580.31
368.24 K, 39988 kPa	587
373.23 K, 2021 kPa	493.52
373.23 K, 4987 kPa	507.69
373.23 K, 9991 kPa	525.4
373.23 K, 14991 kPa	538.98
373.23 K, 19999 kPa	550.26
373.24 K, 24990 kPa	559.83
373.24 K, 29992 kPa	568.32
373.24 K, 34981 kPa	575.91
373.24 K, 39982 kPa	582.83
378.24 K, 2209 kPa	484.69
378.24 K, 5019 kPa	499.59
378.24 K, 10006 kPa	518.69
378.24 K, 14990 kPa	533.06
378.24 K, 20005 kPa	544.87
378.24 K, 25019 kPa	554.94
378.24 K, 30003 kPa	563.71
378.24 K, 34996 kPa	571.57
378.24 K, 40001 kPa	578.7
383.24 K, 2379 kPa	475.33
383.24 K, 5004 kPa	490.95
383.24 K, 10000 kPa	511.79
383.24 K, 14991 kPa	527.07
383.24 K, 19991 kPa	539.46
383.24 K, 24987 kPa	549.92
383.24 K, 30002 kPa	559.07
383.24 K, 34999 kPa	567.19
383.24 K, 39984 kPa	574.5
388.24 K, 2560 kPa	465.51
388.24 K, 4995 kPa	481.89
388.24 K, 9989 kPa	504.7
388.24 K, 15004 kPa	521.06
388.24 K, 20002 kPa	534.05
388.24 K, 25003 kPa	544.95
388.24 K, 29994 kPa	554.4
388.24 K, 34999 kPa	562.8
388.24 K, 39985 kPa	570.33

Settings	vapor or sublimation pressure [kPa]
274.84 K	105.09
278.8 K	122.11
283.68 K	145.21
287.85 K	167.86
292.59 K	196.47
296.57 K	221.89
307.78 K	313.51
313.09 K	365.29
318.13 K	418.65
327.87 K	543.04
336.87 K	680.67
345.89 K	842.53
354.94 K	1035.4
363.31 K	1235
372.35 K	1486.5
376.81 K	1618.2
381.64 K	1778.4
385.75 K	1920.4
